From article PMC9225722, “Synthesis and biological evaluation of thieno[3,2-c]pyrazol-3-amine derivatives as potent glycogen synthase kinase 3β inhibitors for Alzheimer’s disease” (Journal of Enzyme Inhibition and Medicinal Chemistry, 2022)
Entries after “also recorded” stand apart in the source; their conditions may differ.

Tests used:
[1] = tested on: panel of 21 diverse kinases; assay: Kinase selectivity screen, whole panel; assay type: biochemical, human; conditions: 1.0 μM compound, Km ATP, 21 kinases
Source text: (§1) The potent GSK-3β inhibitor 16b was next subjected to kinase selectivity assay. A panel of kinases which were structurally related to GSK-3β was used for the GSK-3β selectivity studies[26]^,[37]^,[38]. […] GSK-3α and GSK-3β are known to share a 98% sequence homology at the catalytic site[42]. CDK5 and GSK-3 belong to the CMGC protein kinase family, which shared highly homology with each other[43]^,[44]. CDK5 is known abnormally activated and also responsible for the tau hyperphosphorylation in AD[45]. It was known that Aβ could increase CK2 activity, which in turn accelerated the tau phosphorylation in AD[46]. Therefore, the inhibition of CDK5 and CK2 by 16b may be beneficial for its anti-AD activities.
Figure 3. Effects of compound 16b on the activities of 21 protein kinases in vitro. Protein kinases were of human origin and assayed in the presence of 1.0 μM compound 16b or vehicle (DMSO). The enzymatic activity was measured in the presence of Km ATP. Kinase activities were given as the mean of twice determinations. […]
(§2) Compound 16b was evaluated for kinase selectivity at Eurofins Cerep SA (Celle-L’Evescault, France) in enzymatic radioactive assays in a panel of 21 different kinases (including GSK-3β) from diverse families. […] The enzymatic activity was measured in the presence of Km ATP.

SH-SY5Y cells [2] = assay: Cytotoxicity on SH-SY5Y cells (MTT assay); assay type: cell-based, human
Description: To evaluate the neuronal cell cytotoxicity of compound 16b, we examined its cytotoxic profile on human neuroblastoma SH-SY5Y cells after incubation for 24 h by the MTT (3-(4,5-dimethylthiazol-2-yl)-2,5-diphenyltetrazolium bromide) assay.
Figure 5. Cell viability of SH-SY5Y cells exposed to compound 16b at different concentrations (range from 3.125 − 50 μM) for 24 h. Vehicle treater cells were used as control. The results were expressed as the percentage of viable cells observed after treatment with compound 16b respect to vehicle-treated cells (100%) and shown as the mean ± SD from at least three separate experiments.
SH-SY5Y cells were cultured in DMEM/F12 (Dulbecco’s modified Eagle medium and Ham’s F-12, 1:1) with 10% FBS (fetal bovine serum), 1% penicillin and 1% streptomycin under 5% CO2 atmosphere at 37 °C. SH-SY5Y cells (1 × 10^5) were seeded in 96-well plates and incubated for 24 h. Different concentrations of compound 16b were added into each well and incubated for another 24 h. The survival of cells was determined by MTT assay and the absorbance of each well were measured using a SpectraMax M5 multimode plate reader at 570 nm. Results were expressed as percentage of control and statistical analysis was performed using GraphPad Prism 5.0 (GraphPad Software Inc., San Diego, CA, USA).

SH-SY5Y cells [3] = assay: Neuronal neurite outgrowth assay; assay type: cell-based, human; conditions: 10 μM, 72 h, compared with RA (10 μM)
Source text: Differentiated SH-SY5Y cells express neurogenesis-related markers, including growth-associated protein 43 (GAP43), the N-myc gene as well as neuronal polarity marker microtubule-associated protein 2 (MAP-2). GAP43 is an intrinsic determinant of neuronal development and plasticity which regulates axon growth and regeneration[68]^,[69]. N-myc is indispensable to normal neurogenesis in the expansion of progenitor cell populations. MAP-2 regulates neuronal development, structural stability and synaptic plasticity through the formation of axonal and dendritic processes[71]^,[72]. Inhibition of GSK-3β could induce neurogenesis and promote the expressions of the neurogenesis-related markers. Firstly, we used SH-SY5Y cells to study the effect of 16b on neurite outgrowth, using retinoic acid (RA) as a positive control. After incubating with 16b (10 μM) or RA (10 μM) for 72 h, the morphology of differentiated neuronal neurite outgrowth were obtained.
Figure 8. (A) Effect of 16b (10 μM) on neurite outgrowth (72 h). Red arrows indicated cells bearing neurites. […]
SH-SY5Y cells (5 × 10^3) were planted in 96-well plates and cultivated at 37 °C for 24 h. […] After the SH-SY5Y cells were cultivated for 24 h, total RNA was extracted, and quantitative RT-PCR was performed according to the previously reported method.

CDK5/p35 = target: T1, CDK5/p35 (Homo sapiens, UniProt Q00535); assay: Kinase selectivity screen (enzymatic radioactive assay, Eurofins Cerep); assay type: biochemical; conditions: 1.0 μM compound, Km ATP
T1 construct: purchased Eurofins Cerep SA (contract assay service)
T1 sequence (Q00535 whole entry): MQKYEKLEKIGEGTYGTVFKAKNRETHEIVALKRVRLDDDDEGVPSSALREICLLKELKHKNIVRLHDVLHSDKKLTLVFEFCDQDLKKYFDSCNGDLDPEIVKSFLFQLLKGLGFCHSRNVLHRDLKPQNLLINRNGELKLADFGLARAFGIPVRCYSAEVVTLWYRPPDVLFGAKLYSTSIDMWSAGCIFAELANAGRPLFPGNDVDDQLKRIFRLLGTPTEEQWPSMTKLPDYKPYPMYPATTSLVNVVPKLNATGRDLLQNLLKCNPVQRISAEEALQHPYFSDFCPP
T1 sequence (Q15078 whole entry partner): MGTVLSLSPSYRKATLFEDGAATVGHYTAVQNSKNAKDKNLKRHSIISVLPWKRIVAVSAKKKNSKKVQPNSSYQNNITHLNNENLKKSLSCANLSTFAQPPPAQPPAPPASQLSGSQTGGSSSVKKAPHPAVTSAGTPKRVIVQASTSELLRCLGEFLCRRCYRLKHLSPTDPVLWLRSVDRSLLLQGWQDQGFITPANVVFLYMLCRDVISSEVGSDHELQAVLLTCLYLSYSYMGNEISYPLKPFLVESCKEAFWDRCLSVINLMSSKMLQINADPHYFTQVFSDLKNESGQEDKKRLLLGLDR
Source text: as §1
(§3) Figure 3. Effects of compound 16b on the activities of 21 protein kinases in vitro. Protein kinases were of human origin and assayed in the presence of 1.0 μM compound 16b or vehicle (DMSO). The enzymatic activity was measured in the presence of Km ATP. Kinase activities were given as the mean of twice determinations. AMPKα1, AMP-activated protein kinase 1; AMPKα2, AMP-activated protein kinase 2; CDK4/cyclinD3, cyclin-dependent protein kinase-4/cyclinD3; CDK5/p35, cyclin-dependent protein kinase-5/p35; CHK1, checkpoint kinase-1; CK2, casein kinase-2; Lck, lymphocyte kinase; MSK1, mitogen- and stress-activated protein kinase-1; p70S6K, p70 ribosomal protein S6 kinase; PDK1, 3-phosphoinositide-dependent protein kinase-1; PKA, cAMP-dependent protein kinase; PKBα, protein kinase Bα; PKCα, protein kinase Cα; PRAK, p38-regulated/activated kinase; SAPK2a, stress-activated protein kinase-2a; SAPK2b, stress-activated protein kinase-2b; SAPK3, stress-activated protein kinase-3; SAPK4, stress-activated protein kinase-4; SGK, serum- and glucocorticoid-induced protein kinase.
as §2

CK2 = target: T2, CK2 (Homo sapiens, UniProt P68400); assay: as above; assay type: biochemical; conditions: 1.0 μM compound, Km ATP
T2 construct: purchased Eurofins Cerep SA (contract assay service)
T2 sequence (P68400 whole entry): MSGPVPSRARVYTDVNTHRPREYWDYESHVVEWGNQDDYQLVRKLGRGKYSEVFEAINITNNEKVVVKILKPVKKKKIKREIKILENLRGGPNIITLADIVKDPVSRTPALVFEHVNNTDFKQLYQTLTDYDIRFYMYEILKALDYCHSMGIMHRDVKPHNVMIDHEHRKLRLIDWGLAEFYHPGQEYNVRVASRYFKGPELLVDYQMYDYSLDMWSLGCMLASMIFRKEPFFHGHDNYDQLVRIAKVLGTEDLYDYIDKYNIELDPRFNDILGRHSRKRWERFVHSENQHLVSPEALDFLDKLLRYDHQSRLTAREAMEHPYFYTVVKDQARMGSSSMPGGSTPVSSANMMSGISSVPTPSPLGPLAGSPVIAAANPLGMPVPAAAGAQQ
Source text: as §1, §3, §2

GSK-3α = target: T3, GSK-3α (Homo sapiens, UniProt P49840); assay: as above; assay type: biochemical; conditions: 1.0 μM compound, Km ATP
T3 construct: purchased Eurofins Cerep SA (contract assay service)
T3 sequence (P49840 whole entry): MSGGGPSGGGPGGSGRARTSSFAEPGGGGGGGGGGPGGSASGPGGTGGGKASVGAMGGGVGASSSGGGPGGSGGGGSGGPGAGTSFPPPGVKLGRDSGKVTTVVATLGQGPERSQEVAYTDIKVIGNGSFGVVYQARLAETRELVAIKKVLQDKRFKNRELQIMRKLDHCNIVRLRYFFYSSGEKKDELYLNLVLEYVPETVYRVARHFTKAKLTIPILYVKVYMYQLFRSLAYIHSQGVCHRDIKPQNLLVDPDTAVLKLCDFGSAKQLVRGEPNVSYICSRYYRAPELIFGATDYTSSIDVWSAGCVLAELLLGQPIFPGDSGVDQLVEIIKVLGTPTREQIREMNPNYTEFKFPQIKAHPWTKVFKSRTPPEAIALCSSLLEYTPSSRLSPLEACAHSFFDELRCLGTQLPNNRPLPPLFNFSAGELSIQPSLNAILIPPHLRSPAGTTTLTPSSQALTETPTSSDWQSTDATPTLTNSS
Source text: as §1, §3, §2

Structure (SMILES): CC(C)C(=O)Nc1n[nH]c2cc(-c3cccnc3)sc12 [Compound 16b, N-(5-(pyridin-3-yl)-1H-thieno[3,2-c]pyrazol-3-yl)isobutyramide]
- kinase selectivity over most of the kinases of the panel [1]: good selectivity; also recorded: accepted kinase selectivity
- non-cytotoxic concentration as fold of the IC50 value of GSK-3β inhibitory activity (SH-SY5Y cells [2]; 50 μM versus GSK-3β IC50): > 16000 fold
- cytotoxicity on SH-SY5Y cells (SH-SY5Y cells [2]; concentration up to 50 μM (3.125-50 μM), 24 h, MTT): no toxicity; also recorded: no significant cytotoxicity
- neurite outgrowth of SH-SY5Y cells (SH-SY5Y cells [3]): substantial ability in inducing SH-SY5Y cells neurite outgrowth
- selectivity over CDK5 (CDK5/p35): low selectivity
- selectivity over CK2 (CK2): moderate selectivity
- selectivity over GSK-3α (GSK-3α): low selectivity
